Measurements published in paper PMC6095626, “Screening of the Pathogen Box for inhibitors with dual efficacy against Giardia lamblia and Cryptosporidium parvum” (PLoS Neglected Tropical Diseases, 2018).

Legend:
[1] = test system: G. lamblia trophozoites (luciferase expressing, WBC6); assay: microbe, parasite or virus in culture; assay type: cell-based, Giardia lamblia; settings: for Giardia (16 uM) Mean % inhibition: initial Pathogen Box screen, single concentration 16 µM, inhibition compared to DMSO wells
Outline: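 Luciferase-expressing WBC6 trophozoites plated at 250,000 cells/mL, compounds added 1:1, incubated anaerobically (GasPak bags) at 37 °C for 24 h; viability read by bioluminescence, with duplicate plates counted on a MOXI Z cell counter. Metronidazole control serially diluted 1:2 from 40 μM.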

[2] = test system: C. parvum (UGA1 Nluc expressing strain in HCT-8 cells); assay: microbe, parasite or virus in culture; assay type: cell-based, Cryptosporidium parvum; settings: initial Pathogen Box screen, single concentration 10 µM, inhibition compared to DMSO wells
Outline: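 HCT-8 monolayers grown 48 h to 90–100% confluence, treated with compound at 10 μM or serial dilutions, then infected with bleach-treated UGA1 Nluc C. parvum oocysts.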

| SMILES | Giardia (16 uM) Mean % inhibition [1] | Crypto (10 uM) Mean % inhibition [2] | G. lamblia inhibition of parasite growth in the initial screen ([1]; 16 μM, 24 hours) [%] | G. lamblia EC50 ([1]; luciferase expressing G. lamblia trophozoites, 24 hours, D-luciferin bioluminescence read-out) |
| --- | --- | --- | --- | --- |
| CC(=O)NC[C@@H]1CN(c2ccc(N3CCOCC3)c(F)c2)C(=O)O1 [MMV687803] | X* (Mean or standard deviation are negative but not significantly different from the control to be a growth promoter) | X* (Mean or standard deviation are negative but not significantly different from the control to be a growth promoter) | – | – |
| O=C1O[C@@H](COc2ccon2)CN1c1cc(F)c(C2=CCN(Cc3ccccc3)CC2)c(F)c1 [MMV687813] | 32% | 40% | – | – |
| Cc1cccc(-c2nc(Nc3ccncn3)c3sccc3n2)n1 [MMV688122] | 33% | 93% | – | – |
| CCc1ccc(S(=O)(=O)Nc2cc(CN3CCN(CCC(C)C)CC3)ccc2C)cc1 [MMV688124] | 72% | X* (Mean or standard deviation are negative but not significantly different from the control to be a growth promoter) | – | – |
| CCCc1ccc(S(=O)(=O)Nc2ccc(CN3CCN(CC4CC4)CC3)cc2)cc1 [MMV688125] | 59% | 50% | – | – |
| c1ccc(Oc2ccc(-c3cncc(-c4ccc5[nH]ccc5c4)n3)cc2)cc1 [MMV688178] | X* (Mean or standard deviation are negative but not significantly different from the control to be a growth promoter) | 59% | – | – |
| NC(N)=Nc1ccc(-c2ccc(-c3ccc(N=C(N)N)cc3Cl)o2)c(Cl)c1 [MMV688179] | 11% | 56% | – | – |
| Cc1nn(C)c(C)c1NS(=O)(=O)c1c(Cl)cc(-c2ccnc(N3CCNCC3)c2)cc1Cl [MMV688180] | 21% | 66% | – | – |
| COc1ccc(-c2cnc3cnc(-c4cccc(OC(C)C)c4)cn23)cc1 [MMV688270] | 10% | X* (Mean or standard deviation are negative but not significantly different from the control to be a growth promoter) | – | – |
| N=C(N)Nc1ccc(-c2ccc(-c3ccc(N=C(N)N)c(Cl)c3)o2)cc1Cl [MMV688271] | 53% | 86% | – | – |
| Nc1ccc2ncnc(Nc3ccc(OCc4cccc(F)c4)c(Cl)c3)c2c1 [MMV688273] | 51% | X* (Mean or standard deviation are negative but not significantly different from the control to be a growth promoter) | – | – |
| O=C(CN1CCOCC1)Nc1ccc2ncnc(Nc3ccc(OCc4cccc(F)c4)c(Cl)c3)c2c1 [MMV688274] | 26% | 47% | – | – |
| CC1=Nc2ccc(Cl)cc2C(O)(c2ccc(C)cc2)N1CCN1CCCCC1 (stereo not drawn) [MMV688279] | 65% | 43% | – | – |
| CN1CCN(S(=O)(=O)c2ccc(-c3ccc4c(Nc5ncc(Cl)cn5)ccnc4c3)cc2)CC1 [MMV688283] | 95% | 89% | ≥ 95 | not potent |
| COc1ccc(-c2nnc3ccc(-c4cccc(C(C)C)c4)cn23)cc1OC [MMV688313] | 26% | 34% | – | – |
| CC(=O)NC[C@H]1CN(c2ccc(-c3ccc(CNCc4cn[nH]n4)cc3)c(F)c2)C(=O)O1 [MMV688327] | 21% | 33% | – | – |
| CC(=O)N1CCN(c2ccc(Oc3ccc(Cl)cc3O)cc2)CC1 [MMV688330] | X* (Mean or standard deviation are negative but not significantly different from the control to be a growth promoter) | 56% | – | – |
| Nc1nc(N)c2c3c(sc2n1)CN(Cc1ccccc1)CC3 [MMV688345] | 16% | X* (Mean or standard deviation are negative but not significantly different from the control to be a growth promoter) | – | – |
| COC(=O)c1ccc(F)cc1NS(=O)(=O)c1cccc(-c2cnn(Cc3ccccc3)c2)c1 [MMV688350] | -6% | 53% | – | – |
| O=C1[C@@H](Oc2ccccc2)[C@@H](c2ccc(Cl)cc2)N1CCn1cnc2c(NCc3ccccc3)ncnc21 [MMV688352] | 41% | X* (Mean or standard deviation are negative but not significantly different from the control to be a growth promoter) | – | – |
| c1cc(C2=NCCN2)cc(-c2cc(-c3ccc(C4=NCCN4)cc3)no2)c1 [MMV688361] | 38% | 44% | – | – |
| COc1cc(C2=NCCN2)cc2cc(-c3ccc(C4=NCCN4)cc3)oc12 [MMV688362] | 54% | 67% | – | – |
| CC(C)(C)OC(=O)N1CCC(Cn2nc(-c3cnc4ccccc4c3)c3c(N)ncnc32)CC1 [MMV688364] | 56% | X* (Mean or standard deviation are negative but not significantly different from the control to be a growth promoter) | – | – |
| NCCN(C(=O)c1ccc(Cl)cc1Cl)c1ccc(OCc2ccc(Cl)cc2)cc1 [MMV688371] | 72% | 76% | – | – |
| O=C(Nc1ccc(F)c(-c2nc3ncc(-c4ccccc4)cc3[nH]2)c1)N1CCCC1 [MMV688372] | 24% | 48% | – | – |
| COc1cc(C2=NCCN2)ccc1-c1cn(-c2cccc(C3=NCCN3)c2)nn1 [MMV688407] | 50% | X* (Mean or standard deviation are negative but not significantly different from the control to be a growth promoter) | – | – |
| CC1=Nc2ccc(Cl)cc2C(c2ccccc2)N1CCNC(=O)CN(C)C (stereo not drawn) [MMV688410] | 20% | 62% | – | – |
| Nc1ncnc2c1c(-c1cnc3ccccc3c1)nn2CC1CCNCC1 [MMV688411] | X* (Mean or standard deviation are negative but not significantly different from the control to be a growth promoter) | X* (Mean or standard deviation are negative but not significantly different from the control to be a growth promoter) | – | – |
| CO[C@@H]1CN(c2ccc(C#CC3(O)CN4CCC3CC4)c(Cc3ccccc3)n2)C[C@H]1O (stereo partly drawn) [MMV688415] | X* (Mean or standard deviation are negative but not significantly different from the control to be a growth promoter) | X* (Mean or standard deviation are negative but not significantly different from the control to be a growth promoter) | – | – |
